Data taken from PMC7799364, “Dual inhibition of the terminal oxidases eradicates antibiotic‐tolerant Mycobacterium tuberculosis” (EMBO Molecular Medicine, 2020).

How the values were obtained:
[1] = biological target: T1, cytochrome bd oxidase (Cyt-bd) (Mycolicibacterium smegmatis, UniProt A0QXA8); experiment: reduced minus oxidized heme difference spectra of NADH-energized ΔqcrCAB IMVs with […] compound; format: cell-based
T1 construct: gene MSMEG_3233; native enzyme in inverted-membrane vesicles of M. smegmatis ΔqcrCAB; with CydB
T1 sequence (A0QXA8 1-487): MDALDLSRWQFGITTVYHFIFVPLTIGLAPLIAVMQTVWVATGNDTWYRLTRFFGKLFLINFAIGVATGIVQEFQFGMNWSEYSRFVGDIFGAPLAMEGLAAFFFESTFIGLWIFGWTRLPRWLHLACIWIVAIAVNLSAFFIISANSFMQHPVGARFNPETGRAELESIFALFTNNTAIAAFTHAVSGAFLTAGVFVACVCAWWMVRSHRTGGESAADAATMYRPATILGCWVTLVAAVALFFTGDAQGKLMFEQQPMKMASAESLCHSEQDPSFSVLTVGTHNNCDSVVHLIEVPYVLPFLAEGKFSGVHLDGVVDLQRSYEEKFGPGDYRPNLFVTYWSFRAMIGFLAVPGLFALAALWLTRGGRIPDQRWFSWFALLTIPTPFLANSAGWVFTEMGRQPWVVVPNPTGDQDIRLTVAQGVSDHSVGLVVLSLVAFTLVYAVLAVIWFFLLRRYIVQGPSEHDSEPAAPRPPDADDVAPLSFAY
T1 sequence (A0QXA7 1-350 partner): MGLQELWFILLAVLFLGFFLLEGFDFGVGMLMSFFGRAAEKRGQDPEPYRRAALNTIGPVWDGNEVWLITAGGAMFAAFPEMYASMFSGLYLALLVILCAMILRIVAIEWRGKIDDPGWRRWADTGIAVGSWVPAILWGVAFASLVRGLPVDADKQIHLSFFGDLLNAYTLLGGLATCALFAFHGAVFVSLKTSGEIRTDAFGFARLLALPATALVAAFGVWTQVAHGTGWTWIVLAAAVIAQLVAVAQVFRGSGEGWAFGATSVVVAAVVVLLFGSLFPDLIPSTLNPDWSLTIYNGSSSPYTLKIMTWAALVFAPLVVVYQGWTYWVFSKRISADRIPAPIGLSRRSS

[2] = biological target: T2, cytochrome bcc (QcrB, cytochrome b subunit of cytochrome bcc:aa3) (Mycolicibacterium smegmatis, UniProt A0R052); experiment: NADH-based heme difference spectra of wild-type IMVs with […] Q203; Q203 also inhibits OCR of ΔcydAB IMVs; format: cell-based
T2 construct: gene MSMEG_4263; native cytochrome bcc-aa3 supercomplex in wild-type inverted-membrane vesicles; with cytochrome bcc-aa3 supercomplex

Compound: FC(F)(F)c1ccc(Oc2ccc(Nc3ncnc4ccccc34)cc2)cc1 [ND-011992, N‐(4‐(4‐(trifluoromethyl)phenoxy)phenyl)quinazolin‐4‐amine]
- reduced minus oxidized heme difference spectra of NADH-energized ΔqcrCAB IMVs wi [1]: the compound selectively binds and affects electron transfer in the mycobacterial Cyt‐bd

Compound: CCc1nc2ccc(Cl)cn2c1C(=O)NCc1ccc(N2CCC(c3ccc(OC(F)(F)F)cc3)CC2)cc1 [Q203]
- NADH-based heme difference spectra of wild-type IMVs with 7.5 μM Q203; Q203 also [2]: confirming drug binding and inhibition of the electron transfer within the cytochrome bcc complex
